How the values were obtained:
[1] = Physical stability, phase separation checked with the naked eye; assay type: physicochemical; settings: solvent screened in cream composition
Description: This is a test to discover an optimized processing method for obtaining a cream formulation.

[2] = Screening of excipient suitability: zileuton with excipient, stability at 50° C.; assay type: physicochemical; settings: changes of TRS % up to 4 weeks at 50° C.
Protocol: Suitability of components generally used in cream formulation with respect to zieluton was screened, prior to preparing a zieluton cream formulation. […] That is, the stability of excipient at 50° C. was tested.

CN1CCCC1=O [NMP, N-methyl pyrrolidone]
Physical stability of cream made with this solvent [1]: bad physical stability

OCc1ccccc1 [benzyl alcohol]
Physical stability of cream made with this solvent [1]: bad physical stability

CCO [ethanol]
Physical stability of cream made with this solvent [1]: deteriorates physical stability

CCCCCCCCCCCCCCCCCCO [stearyl alcohol]
Suitability of excipient with respect to zileuton [2]: suitable

From US9855243B2, “Topical anti-inflammatory pharmaceutical composition with zileuton cream formulation” (Qurient Co., Ltd., priority 2013, dated 2018)
